In ChEMBL document CHEMBL5252632, “Small molecule-based fluorescent probes for the detection of α-Synuclein aggregation states” (Bioorg Med Chem Lett, 2023) one finds Kd and Ka data, which are given here for 15 molecules.

Broadly, the Kd is the free concentration of one partner at which half of the binding sites on the other are occupied at equilibrium, for simple one-to-one binding.

Structures are written as SMILES.

Amyloid-beta precursor protein, sequence (P05067 whole entry): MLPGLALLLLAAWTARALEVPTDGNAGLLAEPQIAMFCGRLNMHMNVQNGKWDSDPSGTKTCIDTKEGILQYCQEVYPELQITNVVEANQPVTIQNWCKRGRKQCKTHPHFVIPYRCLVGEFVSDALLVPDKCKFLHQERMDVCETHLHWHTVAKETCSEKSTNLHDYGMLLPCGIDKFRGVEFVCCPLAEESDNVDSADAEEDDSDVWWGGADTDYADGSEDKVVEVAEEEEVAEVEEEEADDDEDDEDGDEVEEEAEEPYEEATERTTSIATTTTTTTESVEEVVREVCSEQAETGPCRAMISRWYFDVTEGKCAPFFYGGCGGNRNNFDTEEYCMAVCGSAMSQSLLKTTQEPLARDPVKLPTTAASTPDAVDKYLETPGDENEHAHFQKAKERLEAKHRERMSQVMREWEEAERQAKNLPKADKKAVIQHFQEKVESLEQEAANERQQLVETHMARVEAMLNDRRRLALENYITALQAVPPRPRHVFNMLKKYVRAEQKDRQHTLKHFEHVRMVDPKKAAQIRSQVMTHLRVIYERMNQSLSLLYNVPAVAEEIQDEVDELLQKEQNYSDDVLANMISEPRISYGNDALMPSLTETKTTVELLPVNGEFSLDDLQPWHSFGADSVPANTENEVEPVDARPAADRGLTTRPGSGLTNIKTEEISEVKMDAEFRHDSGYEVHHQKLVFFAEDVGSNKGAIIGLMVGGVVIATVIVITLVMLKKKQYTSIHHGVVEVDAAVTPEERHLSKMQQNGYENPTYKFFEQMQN

For one assay, the target named is T1, Alpha-synuclein (Homo sapiens, UniProt P37840). In words: Binding affinity to Alpha-synuclein (unknown origin) assessed as dissociation constant.
`COc1ccc2c(c1)sc(-c1ccc(N3CCCCCC3)cc1)[n+]2C`: the equilibrium dissociation constant (Kd) was found to be 118 µM. Consider `COc1ccc2c(c1)sc(-c1ccc(N3CCCCCCC3)cc1)[n+]2C`, for which the Kd worked out at 118 µM.

Turning to `COc1ccc2c(c1)sc(-c1ccc(N3CCOCC3)cc1)[n+]2C`, the Kd stood at 118 µM.

In the case of `COc1ccc2c(c1)sc(-c1ccc(N(C)C)cc1)[n+]2C`, the Kd is 118 µM.

On to `COc1ccc2c(c1)sc(-c1ccc(N3CCCCC3)cc1)[n+]2C`, for which the equilibrium dissociation constant (Kd) was found to be 118 µM.

A further assay concerns the target T1, Alpha-synuclein. Nature of the assay: Binding affinity to human recombinant Alpha-synuclein assessed as dissociation constant by fluorometric method.
On to `O=S(=O)(O)c1cccc2c(-c3ccc(Nc4ccccc4)c4c(S(=O)(=O)O)cccc34)ccc(Nc3ccccc3)c12`, for which the equilibrium dissociation constant (Kd) was 8.6 µM.

As for `O=S(=O)(O)c1ccc2cc(Nc3ccccc3)ccc2c1`, the Kd is 8.8 µM.

For another assay, the target named is T1, Alpha-synuclein. In words: Binding affinity to C-terminal His6-tagged human Alpha-synuclein fibrils (1 to 97 residues) expressed in Escherichia coli assessed as association constant by chromatography method.
`OCCOC(=C\C=C1N(c2ccccc2)c2cc3ccccc3cc2N1c1ccccc1)/C=C/c1n(-c2ccccc2)c2cc3ccccc3cc2[n+]1-c1ccccc1`: the Ka was found to be 380000 M⁻¹.

A further assay concerns the target Amyloid-beta precursor protein (Homo sapiens, UniProt P05067). In words: Binding affinity to amyloid beta (1 to 40) (unknown origin) aggregates assessed as dissociation constant.
Turning to `CN(C)c1ccc2nc(/C=C/C=C/C=C(C#N)C#N)sc2c1`, the dissociation constant (Kd) is 0.048 µM. `COc1ccc2nc(-c3ccc(N4CCOCC4)cc3)sc2c1`: the Kd is 0.22 µM. For `COc1ccc2nc(-c3ccc(N4CCCCC4)cc3)sc2c1`, the dissociation constant (Kd) was found to be 0.22 µM. Same read-out and setting: under `COc1ccc2nc(-c3ccc(N(C)C)cc3)sc2c1` stands 0.22 µM; under `COc1ccc2nc(-c3ccc(N4CCCCCC4)cc3)sc2c1`, 0.22 µM. As to `COc1ccc2nc(-c3ccc(N4CCCCCCC4)cc3)sc2c1`, the Kd was 0.22 µM.

As to `COc1ccc2nc(-c3ccc(N4CCCC4)cc3)sc2c1`, the dissociation constant (Kd) was found to be 0.22 µM.
